Results published in ChEMBL document CHEMBL1201862, “PubChem BioAssay data set” (2004).
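Grown in 96-well plates, cells were treated for 48 hours with each compound at five concentrations. Insufficient inhibition: endpoint recorded as highest concentration tested. GI50 marks 50% less growth.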 The source made the active and inactive calls. Cut-off read from the data, not from the text of the source: active = GI50 up to about 1.1 µM and inactive = higher.

Tests used:
Assay in all cases: DTP human tumour cell line panel, 48 h
[1] = tested on: NCI-H226
[2] = tested on: U-251
[3] = tested on: LOX IMVI
[4] = tested on: SNB-19
[5] = tested on: DMS-114
[6] = tested on: OVCAR-3
[7] = tested on: ACHN
[8] = tested on: M19-MEL
[9] = tested on: CCRF-CEM
[10] = tested on: SNB-75
[11] = tested on: SNB-78
[12] = tested on: NCI-H460
[13] = tested on: HOP-18
[14] = tested on: SR
[15] = tested on: SK-MEL-5
[16] = tested on: M14
[17] = tested on: KM12
[18] = tested on: HT-29
[19] = tested on: LXFL 529
[20] = tested on: DLD-1
[21] = tested on: SF-295
[22] = tested on: HOP-62
[23] = tested on: A498
[24] = tested on: K562
[25] = tested on: CAKI-1
[26] = tested on: TK-10
[27] = tested on: HCT-15
[28] = tested on: SK-OV-3
[29] = tested on: Malme-3M
[30] = tested on: RPMI-8226
[31] = tested on: HL-60
[32] = tested on: SF-268
[33] = tested on: NCI-H522
[34] = tested on: UO-31
[35] = tested on: SN12C
[36] = tested on: SF-539
[37] = tested on: SK-MEL-2
[38] = tested on: DMS-273
[39] = tested on: MOLT-4
[40] = tested on: KM-20L2
[41] = tested on: A549
[42] = tested on: OVCAR-8
[43] = tested on: 786-0
[44] = tested on: HCT-116
[45] = tested on: OVCAR-4
[46] = tested on: RXF 393
[47] = tested on: COLO 205
[48] = tested on: OVCAR-5
[49] = tested on: UACC-257
[50] = tested on: NCI-H23
[51] = tested on: SK-MEL-28
[52] = tested on: HCC 2998
[53] = tested on: IGROV-1
[54] = tested on: UACC-62

Measured: GI50

COC(OC)c1cccc2c1C1(O)CCC3(CC21)OCCCCO3 (centres undefined)
inactive: [1] > 100 µM | [2] > 100 µM | [3] > 100 µM | [4] > 100 µM | [5] > 100 µM | [6] > 100 µM | [7] > 100 µM | [8] > 100 µM | [9] > 100 µM | [10] > 100 µM | [11] > 100 µM | [12] > 100 µM | [13] > 100 µM | [14] > 100 µM | [15] > 100 µM | [16] > 100 µM | [17] > 100 µM | [18] > 100 µM | [19] > 100 µM | [20] > 100 µM | [21] > 100 µM | [22] > 100 µM | [23] > 100 µM | [24] > 100 µM | [25] > 100 µM | [26] > 100 µM | [28] > 100 µM | [29] > 100 µM | [30] > 100 µM | [31] > 100 µM | [32] > 100 µM | [33] > 100 µM | [34] > 100 µM | [35] > 100 µM | [36] > 100 µM | [37] > 100 µM | [38] > 100 µM | [39] > 100 µM | [40] > 100 µM | [41] > 100 µM | [42] > 100 µM | [43] > 100 µM | [44] > 100 µM | [45] > 100 µM | [46] > 100 µM | [47] > 100 µM | [48] > 100 µM | [49] > 100 µM | [50] > 100 µM | [51] > 100 µM | [52] > 100 µM | [53] > 100 µM | [54] > 100 µM
> 100 µM: [27]
